Among the data in the RepoRT retention time repository (doi:10.1021/acs.analchem.2c02893) are LC retention time values, retold here.

A short description of the data set: RP, Thermo Scientific Acclaim RSLC 120 C18, 100 × 2.1 mm, 2.2 µm, 30 °C, 0.2 mL/min, estimated dead time 1.1 min; A: 90% water + 10% methanol + 0.01% formic acid + 5 mM ammonium formate, pH 3.61; B: methanol + 0.01% formic acid + 5 mM ammonium formate, pH 3.61; gradient (min/%B) 0/1 1/1 2/39 13/99.9 15/99.9 15.1/1 20.1/1. The note with it: stereoisomer not certain.
For `Cc1ncc([N+](=O)[O-])n1C` [Dimetridazole], the LC retention time is 4.27 min.

As for `CC(C)N(C(=O)COc1nnc(C(F)(F)F)s1)c1ccc(F)cc1` [Flufenacet], the LC retention time is 10.1 min.

Turning to `CCOC(=O)C(CCc1ccccc1)NC(C)C(=O)N1CCCC1C(=O)O` (centres undefined) [Enalapril], the LC retention time was 6.83 min.

Turning to `O=C(OCC(O)CO)c1ccccc1Nc1ccnc2cc(Cl)ccc12` (centres undefined) [Glaphenine], the LC retention time is 6.63 min.

For `CC(C)(O)c1ccccc1CCC(SCC1(CC(=O)O)CC1)c1cccc(C=Cc2ccc3ccc(Cl)cc3n2)c1` (centres undefined) [Montelukast], the LC retention time is 13.4 min.

On to `CNC1CCC(c2ccc(Cl)c(Cl)c2)c2ccccc21` (centres undefined) [Sertraline], for which the LC retention time is 8.94 min.

In the case of `CC(C)CC(C)Nc1ccc(Nc2ccccc2)cc1` (centres undefined) [Diphenylamin-4-(dimethylbutylamino) (6PPD)], the LC retention time was 9.92 min.

As for `CN1C(=O)C(O)N=C(c2ccccc2)c2cc(Cl)ccc21` (centres undefined) [Temazepam], the LC retention time is 7.94 min.

Take `O=C1CCc2ccc(OCCCCN3CCN(c4cccc(Cl)c4Cl)CC3)cc2N1` [Aripiprazole]: the LC retention time was 8.63 min.

Regarding `CCCOC(C(=O)OC1CCN(C)CC1)(c1ccccc1)c1ccccc1` [Propiverine], the LC retention time was 9.36 min.

For the molecule `CNC(C)C(=O)c1cccc(F)c1` (centres undefined) [Methcathinone (3-F-)], the LC retention time is 3.94 min.

In the case of `O=[N+]([O-])c1ccc(Oc2ccc(Cl)cc2Cl)cc1` [Nitrofen], the LC retention time was 12.1 min.

On to `O=C(c1ccc(Cl)cc1)c1ccc(Cl)cc1` [Benzophenone-p.p-Dichloro], for which the LC retention time is 11.9 min.

Turning to `CCCc1nn(C)c2c(=O)[nH]c(-c3cc(S(=O)(=O)N4CCN(Cc5ccccc5)CC4)ccc3OCC)nc12` [Sildenafil-Benzyl], the LC retention time was 11.5 min.

On to `COc1ccc2[nH]cc(CCNC(C)=O)c2c1` [Melatonin], for which the LC retention time is 5.36 min.

With `CCCCCCCCCCCCCCCC[N+](C)(C)C` [Hexadecyltrimethylammonium], the LC retention time is 12.9 min.

For `C=C1CC(=CC)C(=O)OC2CC[N+]3([O-])CC=C(COC(=O)C1(C)O)C23` (centres undefined) [Seneciphylline-N-oxide], the LC retention time is 4.5 min.

In the case of `CCCCCn1nc(C(=O)Nc2cccc3ccccc23)c2ccccc21` [MN-18], the LC retention time was 13 min.

Consider `CCN(CC)CCNC(=O)c1cc(S(C)(=O)=O)ccc1OC` [Tiapride], for which the LC retention time is 3.41 min.

`CCOc1cc(CC(=O)NC(CC(C)C)c2ccccc2N2CCCCC2)ccc1C(=O)O` (centres undefined) [Repaglinide]: the LC retention time is 11.9 min.

On to `CC(=O)C1CCC2C3CCC4=CC(=O)CCC4(C)C3CCC12C` (centres undefined) [Progesterone], for which the LC retention time was 11.2 min.

`CCNc1nc(NCC)nc(SC)n1` [Simetryn]: the LC retention time was 8.14 min.

With `O=C(NC1CCN(CCc2c[nH]c3ccccc23)CC1)c1ccccc1` [Indoramin], the LC retention time was 5.37 min.

Turning to `CNC(C)C(=O)c1ccc(Br)cc1` (centres undefined) [Brefedrone], the LC retention time was 5.05 min.

Take `Cn1c(=O)c2c(ncn2CCO)n(C)c1=O` [Etofylline]: the LC retention time was 4.09 min.

As to `CC(C)n1c(C=CC(O)CC(O)CC(=O)O)c(-c2ccc(F)cc2)c2ccccc21` (centres undefined) [Fluvastatin], the LC retention time was 10.9 min.

With `CSc1ccc(CC(C)N)cc1` (centres undefined) [MTA (4-)], the LC retention time was 5.24 min.

For the molecule `CC(C)(C)NCC(O)COc1ccc(NC(=O)NC2CCCCC2)cc1` (centres undefined) [Talinolol], the LC retention time was 6.58 min.

In the case of `CC1CC2C(C(O)CC3(C)C2CCC3(O)C(=O)CO)C2(C)C=CC(=O)C=C12` (centres undefined) [Prednisolone-Methyl], the LC retention time is 8.75 min.

Consider `CC(O)Cn1cnc2c1c(=O)n(C)c(=O)n2C` (centres undefined) [Proxyphylline], for which the LC retention time is 4.34 min.

As to `CNC(C)Cc1ccccc1F` (centres undefined) [Amphetamine-2-F-Methyl (2-F-methamphetamine)], the LC retention time was 4.33 min.

For `CC(C)NC(=O)c1ccccc1O` [Salicylamide-N-Isopropyl], the LC retention time is 7.14 min.

`Cc1ccc(C(=CCN2CCCC2)c2ccccn2)cc1` [Triprolidine]: the LC retention time is 6.28 min.

Consider `CC(C)=CC1C(C(=O)OCc2coc(Cc3ccccc3)c2)C1(C)C` (centres undefined) [Bioresmethrin], for which the LC retention time was 13.6 min.

`CCC1OC(=O)C(C)C(OC2CC(C)(OC)C(O)C(C)O2)C(C)C(OC2OC(C)CC(N(C)C)C2O)C(C)(OC)CC(C)C(=O)C(C)C(O)C1(C)O` (centres undefined) [Clarithromycin]: the LC retention time is 9.18 min.

`N#Cc1ccc2c(c1)N(CCCN1CCC(O)CC1)c1ccccc1S2` [Periciazine]: the LC retention time is 7.45 min.

Turning to `Cc1nnc2n1-c1ccc(Cl)cc1C(c1ccccc1Cl)=NC2` [Triazolam], the LC retention time is 8.05 min.

`COc1ccccc1OCCNCC(O)COc1cccc2[nH]c3ccccc3c12` (centres undefined) [Carvedilol]: the LC retention time is 6.91 min.

Regarding `CN(C(=O)CO)c1c(I)c(C(=O)NCC(O)CO)c(I)c(C(=O)NCC(O)CO)c1I` (centres undefined) [Iomeprol], the LC retention time was 2.91 min.

For `Nc1nc(=S)c2[nH]cnc2[nH]1` [Thioguanine], the LC retention time was 2.53 min.

For `O=C(c1cccc2ccccc12)c1cn(CCN2CCOCC2)c2cccc(O)c12` [JWH-200-M-4-OH-Ind], the LC retention time was 10.1 min.

Regarding `COc1ccc(C2Sc3ccccc3N(CCN(C)C)C(=O)C2OC(C)=O)cc1` (centres undefined) [Diltiazem], the LC retention time is 7.18 min.

Turning to `CCC1C(=O)OCC1Cc1cncn1C` (centres undefined) [Pilocarpine], the LC retention time is 2.74 min.

Take `CN(C)CCCN1c2ccccc2Sc2cccnc21` [Prothipendyl]: the LC retention time was 7.21 min.

With `CC(C)(C)c1ccc(C(O)CCCN2CCC(C(O)(c3ccccc3)c3ccccc3)CC2)cc1` (centres undefined) [Terfenadine], the LC retention time is 9.69 min.

`O=C(NC12CC3CC(CC(C3)C1)C2)c1cn(CCCCCF)c2ccccc12` [STS-135]: the LC retention time is 12.2 min.

In the case of `CC(CS)C(=O)N1CCCC1C(=O)O` (centres undefined) [Captopril], the LC retention time is 4.59 min.

For `CC12CC1(C)C(=O)N(c1cc(Cl)cc(Cl)c1)C2=O` (centres undefined) [Procymidone], the LC retention time was 10.2 min.

As for `CCOP(=S)(OCC)Oc1cc(C)nc(C(C)C)n1` [Diazinon], the LC retention time is 11 min.

In the case of `CCC1CCCC(OC2CCC(N(C)C)C(C)O2)C(C)C(=O)C2=CC3C(C=C(C)C4CC(OC5OC(C)C(OC)C(OC)C5OC)CC43)C2CC(=O)O1` (centres undefined) [Spinosad D], the LC retention time is 11.8 min.

Regarding `Nc1ccc2c(c1)C(c1ccccc1F)=NCC(=O)N2` [Flunitrazepam-7-Amino-desmethyl], the LC retention time was 4.62 min.

For `CCc1cnc(C2=NC(C)(C(C)C)C(=O)N2)c(C(=O)O)c1` (centres undefined) [Imazethapyr], the LC retention time is 5.6 min.

Regarding `CC(N)Cc1c2ccoc2c(Br)c2ccoc12` (centres undefined) [Bromodragonfly], the LC retention time is 7.41 min.

Regarding `Nc1nc(N)c2nc(-c3ccccc3)c(N)nc2n1` [Triamterene], the LC retention time was 4.68 min.

`CN(C)C(=O)Nc1ccc(-n2nc(C(C)(C)C)oc2=O)c(Cl)c1` [Dimefuron]: the LC retention time was 8.76 min.

With `Clc1ccc(C(Cn2ccnc2)OCc2ccc(Sc3ccccc3)cc2)c(Cl)c1` (centres undefined) [Fenticonazole], the LC retention time was 13.4 min.

Take `O=C(O)Cc1cccc2ccccc12` [Naphthylacetic acid (1-)]: the LC retention time is 7.76 min.

In the case of `CN=CNc1ccc(C)cc1C` [N'-(2 4-Dimethylphenyl)-N-methylformamidine], the LC retention time was 4.44 min.

Consider `O=C(CCCN1CC=C(n2c(=O)[nH]c3ccccc32)CC1)c1ccc(F)cc1` [Droperidol], for which the LC retention time is 6.16 min.

Turning to `O=C1CC2(CCCCC2)CN1` [3,3-pentamethylene-4-butyrolactam], the LC retention time was 6.64 min.

As to `NC(=O)N1c2ccccc2C(O)C(O)c2ccccc21` (centres undefined) [Carbamazepine-10.11-dihydro-10.11 dihydroxy], the LC retention time is 5.79 min.

`CNC(C)Cc1ccc(O)c(OC)c1` (centres undefined) [HMMA]: the LC retention time is 3.19 min.

As for `c1ccc(CC2=NCCN2)cc1` [Tolazoline], the LC retention time was 3.28 min.

On to `CC12CCC3C(CC=C4CC(O)CCC43C)C1CCC2=O` (centres undefined) [Dhydroepiandrosterone (DHEA) / Androstenolone], for which the LC retention time was 10.2 min.

With `COc1c(Cl)ccc(Cl)c1C(=O)O` [Dicamba], the LC retention time is 4.97 min.

`O=C1CN=C(c2ccccc2F)c2cc(Br)ccc2N1` [Flubromazepam]: the LC retention time was 8.7 min.

For the molecule `CC1(C)CCC(Cc2ccc(Cl)cc2)C1(O)Cn1cncn1` (centres undefined) [Metconazole], the LC retention time is 11.2 min.

Take `NC(Cc1ccc(N(CCCl)CCCl)cc1)C(=O)O` (centres undefined) [Melphalan]: the LC retention time was 7.01 min.

For `CCN(CC)C(=O)C(C#N)=Cc1cc(O)c(O)c([N+](=O)[O-])c1` [Entacapon], the LC retention time was 6.89 min.

In the case of `Nc1ccc(S(=O)(=O)Nc2cnc3ccccc3n2)cc1` [Sulfaquinoxaline], the LC retention time is 5.81 min.

With `CN1C(C(=O)Nc2ccccn2)=C(O)c2ccccc2S1(=O)=O` [Piroxicam], the LC retention time is 6.84 min.

For `COc1cc(O)c(C(=O)c2ccccc2)cc1S(=O)(=O)O` [Benzophenone-4], the LC retention time is 6.19 min.

Take `CC1CC2C3CC(F)C4=CC(=O)C=CC4(C)C3C(O)CC2(C)C1(O)C(=O)CO` (centres undefined) [Paramethasone]: the LC retention time was 8.69 min.

Consider `CCCn1c(C)c(C(=O)c2cccc3ccccc23)c2ccccc21` [JWH-015], for which the LC retention time is 11.5 min.
